Here are results for one compound from paper PMC4550851, “Potential analgesic effects of a novel N-acylethanolamine acid amidase inhibitor F96 through PPAR-α” (Scientific Reports, 2015).

Common to all, as to type: biochemical
Test [1] has as its target T1, N-acylethanolamine acid amidase (NAAA) (Homo sapiens, UniProt Q02083).
T1 sequence (Q02083 29-125): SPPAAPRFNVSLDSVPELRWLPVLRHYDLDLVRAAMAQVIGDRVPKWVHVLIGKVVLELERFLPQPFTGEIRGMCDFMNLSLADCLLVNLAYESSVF
T1 sequence (Q02083 126-359): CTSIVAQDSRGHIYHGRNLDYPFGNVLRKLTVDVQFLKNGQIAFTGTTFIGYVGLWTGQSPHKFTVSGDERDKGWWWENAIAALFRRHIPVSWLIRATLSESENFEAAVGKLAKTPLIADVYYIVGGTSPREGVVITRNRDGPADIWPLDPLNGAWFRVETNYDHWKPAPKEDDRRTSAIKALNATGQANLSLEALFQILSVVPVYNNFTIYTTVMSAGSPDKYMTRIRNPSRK
As to the kind of experiment: enzyme activity assay, IC50.

The target of test [2] is T2, N-acylethanolamine acid amidase (NAAA) (Rattus norvegicus, UniProt Q5KTC7).
T2 construct: extracted recombinant rat NAAA (rNAAA)
T2 sequence (Q5KTC7 34-130): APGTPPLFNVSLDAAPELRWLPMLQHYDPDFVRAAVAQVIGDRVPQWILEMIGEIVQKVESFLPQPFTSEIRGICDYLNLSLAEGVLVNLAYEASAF
T2 sequence (Q5KTC7 131-362): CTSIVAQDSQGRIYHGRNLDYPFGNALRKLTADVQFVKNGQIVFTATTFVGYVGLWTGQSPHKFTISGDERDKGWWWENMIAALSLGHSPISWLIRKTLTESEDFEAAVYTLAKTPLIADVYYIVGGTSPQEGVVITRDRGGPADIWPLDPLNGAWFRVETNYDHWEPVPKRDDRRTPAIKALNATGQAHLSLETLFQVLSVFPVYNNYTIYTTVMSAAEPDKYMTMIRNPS
As to the kind of experiment: enzyme activity assay with extracted recombinant rNAAA, heptadecenoylethanolamide substrate, concentration-response.

The target of the next test is T3, FAAH (Rattus norvegicus, UniProt P97612).
T3 construct: extracted recombinant rat FAAH (rFAAH)
T3 sequence (P97612 1-579): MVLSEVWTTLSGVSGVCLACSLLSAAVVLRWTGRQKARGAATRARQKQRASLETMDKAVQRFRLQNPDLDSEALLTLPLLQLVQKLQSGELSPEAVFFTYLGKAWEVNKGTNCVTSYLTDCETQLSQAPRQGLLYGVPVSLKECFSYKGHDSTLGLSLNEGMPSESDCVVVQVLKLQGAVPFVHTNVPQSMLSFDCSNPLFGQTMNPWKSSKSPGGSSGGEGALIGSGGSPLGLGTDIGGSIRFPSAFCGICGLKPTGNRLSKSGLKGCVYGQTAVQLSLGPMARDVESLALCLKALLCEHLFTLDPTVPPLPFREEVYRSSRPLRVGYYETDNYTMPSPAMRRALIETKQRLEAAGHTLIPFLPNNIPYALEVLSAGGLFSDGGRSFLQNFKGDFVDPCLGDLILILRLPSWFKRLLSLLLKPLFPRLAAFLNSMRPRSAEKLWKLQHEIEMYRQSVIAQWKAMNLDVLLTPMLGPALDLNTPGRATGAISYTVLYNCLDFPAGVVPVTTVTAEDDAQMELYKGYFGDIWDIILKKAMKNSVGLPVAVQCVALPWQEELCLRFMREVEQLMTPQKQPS
As to the kind of experiment: enzyme activity assay with extracted recombinant rFAAH, anandamide substrate (selectivity counter-assay).

What is called IC50 is the midpoint of a concentration-inhibition curve.

On to `O=C(CCCCCc1ccccc1)N1CCOC1=O` [F96, 3-(6-phenylhexanoyl)oxazolidin-2-one], for which the values for the IC50 (in test [1]; in test [2]; at FAAH) were 269 ± 43.8 nM, 269 ± 22.4 nM and 42000 ± 1920 nM, respectively.
